Measurements taken from PubChem BioAssay AID602214 (Southern Research Specialized Biocontainment Screening …, 2012).
Active and inactive are the calls of the source.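 Rule for the calls: active = inhibition of 30% or more at any tested concentration; inactive = the rest.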

biological target: Cytosol aminopeptidase (Homo sapiens) (UniProt P28838); test: inhibition of HuM17LAP aminopeptidase activity – biochemical, QFRET fluorogenic substrate, counter-screen for PfM17LAP inhibitor project, dose response (AID 602214); conditions: purified recombinant human M17LAP, H-Leu-NHMec fluorescence
Sequence (P28838 whole entry, looked up): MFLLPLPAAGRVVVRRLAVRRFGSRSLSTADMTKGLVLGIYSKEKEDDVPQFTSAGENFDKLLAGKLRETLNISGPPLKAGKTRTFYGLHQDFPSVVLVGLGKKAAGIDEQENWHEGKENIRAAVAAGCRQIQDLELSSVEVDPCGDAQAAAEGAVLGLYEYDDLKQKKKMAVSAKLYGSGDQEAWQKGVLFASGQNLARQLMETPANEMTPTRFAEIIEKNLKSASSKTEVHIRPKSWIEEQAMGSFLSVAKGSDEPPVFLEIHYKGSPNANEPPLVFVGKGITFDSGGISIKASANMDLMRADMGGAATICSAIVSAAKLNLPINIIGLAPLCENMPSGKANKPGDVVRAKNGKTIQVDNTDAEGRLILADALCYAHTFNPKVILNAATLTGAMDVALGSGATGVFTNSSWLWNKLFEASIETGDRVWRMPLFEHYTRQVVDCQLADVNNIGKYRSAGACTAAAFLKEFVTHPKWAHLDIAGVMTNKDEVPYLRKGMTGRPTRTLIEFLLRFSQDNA

Row | Structure (SMILES) | IC50 [nM]
1 | COC(=O)c1c(NC(=O)C2CC=CCC2C(=O)O)sc(C)c1-c1ccc(C)cc1 (centres undefined) | 85700
2 | CCCCCCCCCC(=O)NO | 8230

Other lines, results leading:

Row | IC50 [nM] | Structure (SMILES)
3 | 1820 | Cc1ccc(CC(=O)NO)cc1
4 | 350 | CCCCc1ccc(CC(=O)NO)cc1
5 | 4580 | COc1ccc(CCCC(=O)NO)cc1
6 | 310 | CCCCOc1ccc(CC(=O)NO)cc1
7 | 290 | O=C(Cc1ccc2ccccc2c1)NO
8 | 16200 | CCCCOc1ccc(CCC(=O)NO)cc1
9 | 44200 | COc1ccc(OCCC(=O)NO)cc1
10 | 990 | O=C(Cc1cccc2ccccc12)NO
11 | 1110 | CCOc1ccc(CC(=O)NO)cc1
12 | 1640 | COc1ccc(CC(=O)NO)cc1
13 | 8670 | CCCCOc1ccc(C(=O)NO)cc1
14 | 210 | CC(C)COc1ccc(CC(=O)NO)cc1
15 | 520 | O=C(Cc1ccc(Oc2ccccc2)cc1)NO
16 | 280 | O=C(Cc1ccc2c(c1)CCCC2)NO
17 | 31900 | O=C(NO)c1cccc2ccccc12
18 | 1180 | O=C(Cc1ccc(OCc2ccccc2)cc1)NO

same assay, conditions: purified recombinant human M17LAP, H-Leu-NHMec fluorescence; at 25 µM (top of the series)

Row | Structure (SMILES) | inhibition
19 | CCCCOc1ccc(CNc2c(N(C)O)c(=O)c2=O)cc1 | inactive

same assay, conditions: purified recombinant human M17LAP, H-Leu-NHMec fluorescence; at 50 µM (top of the series)

Row | Structure (SMILES) | inhibition
20 | COC(=O)c1ccccc1NC(=O)c1cc2cc3ccc(C)cc3nc2s1 | inactive
21 | COC(=O)c1ccccc1NC(=O)c1ccc2c(Cl)c3c(nc2c1)CCC3 | inactive
22 | O=C1OCCC1Sc1nnc(NC2CCCCC2)s1 (centres undefined) | inactive

More lines, now with the values ahead:

Row | inhibition | Structure (SMILES)
23 | inactive | O=C(CSc1nccc(=O)[nH]1)Nc1ccc(Oc2ccccc2)cc1
24 | inactive | CCCCOc1ccc(CC(=O)N(C)O)cc1

same assay, conditions: purified recombinant human M17LAP, H-Leu-NHMec fluorescence; at 100 µM (top of the series)

Row | Structure (SMILES) | inhibition
25 | CC(C)C[C@H](N)C(=O)NO | inactive
26 | CC1=C(C)CC(C(=O)Nc2nc(-c3cc(C)ccc3C)c(C)s2)C(C(=O)O)C1 (centres undefined) | inactive
27 | O=C(CSc1nccc(=O)[nH]1)Nc1ccc(N2CCOCC2)cc1 | inactive
28 | Cc1cc(=O)[nH]c(SCC(=O)Nc2ccccc2)n1 | inactive
29 | O=C(O)c1ccccc1C(=O)Nc1nc2c(s1)CCCC2 | inactive
30 | COC(=O)c1cc(OC)c(OC)cc1NC(=O)c1sc2nc(C)ccc2c1N | inactive
31 | O=C(CSc1ccccc1)Nc1cccc2c1C(=O)NC2=O | inactive
32 | NC(N)=NCCC[C@H](N)C(=O)NO | inactive
33 | Cc1ccc(NC(=O)CSc2nc(O)cc(=O)n2Cc2ccccc2)cc1 | inactive
34 | Cc1cc(SCC(=O)Nc2ccccc2C(=O)O)nc2ccccc12 | inactive
35 | COc1cc(NC(=O)c2ccc(-c3ccccc3)cc2)c(C(=O)O)cc1OC | inactive
36 | COc1cc(NC(=O)CSc2ccccc2)c(C(=O)O)cc1OC | inactive
37 | O=C(CSc1nc(O)cc(=O)[nH]1)Nc1ccccc1 | inactive
38 | COC(=O)c1c(NC(=O)c2ccccc2C(=O)O)sc2c1CCCC2 | inactive
39 | O=C(Nc1ccc(Cl)cc1)Nc1ccccc1C(=O)O | inactive
40 | COC(=O)c1c(NC(=O)C2CCCCC2C(=O)O)sc2c1CCC(c1ccccc1)C2 (centres undefined) | inactive
41 | CCn1c2ccccc2c2cc(NC(=O)CSc3nc(C)cc(=O)[nH]3)ccc21 | inactive
42 | CCC(C)(C)C1CCc2c(sc(NC(=O)C3CC(C)=C(C)CC3C(=O)O)c2C(=O)OC)C1 (centres undefined) | inactive
43 | CC1CCc2sc(C(=O)Nc3cccc4c3C(=O)NC4)cc2C1 (centres undefined) | inactive

Other lines, results leading:

Row | inhibition | Structure (SMILES)
44 | inactive | CCCCOc1ccc(CC(=O)O)cc1
45 | inactive | CC(C)(C(=O)NO)c1ccccc1
46 | inactive | N[C@@H](Cc1c[nH]c2ccccc12)C(=O)NO
47 | inactive | COc1ccc(-c2nnc(NC(=O)C3CC(C)=C(C)CC3C(=O)O)s2)cc1 (centres undefined)
48 | inactive | COC(=O)Cc1ccc(OCCN(C)C)cc1
49 | inactive | CCCCOc1ccc(CNc2c(N(O)Cc3ccccc3)c(=O)c2=O)cc1
50 | inactive | CCC(C)Oc1ccc(CC(=O)OC)cc1 (centres undefined)
51 | inactive | COC(=O)Cc1ccc(OCC(C)C)cc1
52 | inactive | CCCOc1ccc(CC(=O)OC)cc1
53 | inactive | CN(O)C(=O)Cc1ccc(OCc2ccccc2)cc1
54 | inactive | CC1=C(C)CC(C(=O)Nc2ccc(Oc3ccc(Cl)cc3)cc2)C(C(=O)O)C1 (centres undefined)
